Source: PubChem BioAssay (NCI)
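Step 1: Grow cells in 96-well plates. Step 2: Expose to compound for 48 hours at 5 concentrations. Step 3: Interpolate endpoints linearly; if unreached, use highest concentration. Here, GI50 denotes the concentration required for 50% inhibition of growth. TGI denotes the concentration required for complete inhibition of growth.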

Experiments:
Assay in all cases: NCI tumour cell line growth inhibition, 48 h
NCI-H23 lung = tested on: NCI-H23 lung
NCI-H460 lung = tested on: NCI-H460 lung
NCI-H522 lung = tested on: NCI-H522 lung
NCI/ADR-RES ovarian = tested on: NCI/ADR-RES ovarian
OVCAR-3 ovarian = tested on: OVCAR-3 ovarian
OVCAR-4 ovarian = tested on: OVCAR-4 ovarian
OVCAR-5 ovarian = tested on: OVCAR-5 ovarian
OVCAR-8 ovarian = tested on: OVCAR-8 ovarian
PC-3 prostate = tested on: PC-3 prostate
RPMI-8226 leukemia = tested on: RPMI-8226 leukemia
RXF 393 renal = tested on: RXF 393 renal
SF-268 CNS = tested on: SF-268 CNS
SF-295 CNS = tested on: SF-295 CNS
SF-539 CNS = tested on: SF-539 CNS
SK-MEL-2 melanoma = tested on: SK-MEL-2 melanoma
SK-MEL-28 melanoma = tested on: SK-MEL-28 melanoma
SK-MEL-5 melanoma = tested on: SK-MEL-5 melanoma
SK-OV-3 ovarian = tested on: SK-OV-3 ovarian
SN12C renal = tested on: SN12C renal
SNB-19 CNS = tested on: SNB-19 CNS
SNB-75 CNS = tested on: SNB-75 CNS
SR leukemia = tested on: SR leukemia
SW-620 colon = tested on: SW-620 colon
T-47D breast = tested on: T-47D breast
TK-10 renal = tested on: TK-10 renal
U251 CNS = tested on: U251 CNS
UACC-257 melanoma = tested on: UACC-257 melanoma
UACC-62 melanoma = tested on: UACC-62 melanoma
UO-31 renal = tested on: UO-31 renal

## CC[C@@H](C(=O)[C@H](C)[C@H](O)[C@@H](C)[C@H]1O[C@H]([C@@H](CC)C(=O)N(CC)CC)CC[C@H]1C)C1O[C@]2(C=C[C@@H](O)[C@]3(CC[C@@](C)([C@H]4CC[C@](O)(CC)[C@H](C)O4)O3)O2)[C@H](C)C[C@@H]1C (some centres not stated)
NCI-H23 lung
  TGI: 8.94 µM
NCI-H460 lung
  GI50: 2.61 µM
  TGI: 7.3 µM
NCI-H522 lung
  GI50: 2.34 µM
  TGI: 7.74 µM
NCI/ADR-RES ovarian
  GI50: 2.56 µM
  TGI: 9.27 µM
OVCAR-3 ovarian
  GI50: 2.64 µM
  TGI: 8.16 µM
OVCAR-4 ovarian
  GI50: 3.04 µM
  TGI: 11.3 µM
OVCAR-5 ovarian
  GI50: 2.85 µM
  TGI: 11.1 µM
OVCAR-8 ovarian
  GI50: 3.42 µM
  TGI: 21.1 µM
PC-3 prostate
  GI50: 2.54 µM
  TGI: 11.9 µM
RPMI-8226 leukemia
  GI50: 2.05 µM
  TGI: 6.15 µM
RXF 393 renal
  GI50: 2.06 µM
  TGI: 5.87 µM
SF-268 CNS
  GI50: 3.6 µM
  TGI: 19.3 µM
SF-295 CNS
  GI50: 2.49 µM
  TGI: 9.81 µM
SF-539 CNS
  GI50: 3.01 µM
  TGI: 10.5 µM
SK-MEL-2 melanoma
  GI50: 3.19 µM
  TGI: 9.21 µM
SK-MEL-28 melanoma
  GI50: 4.97 µM
  TGI: 17 µM
SK-MEL-5 melanoma
  GI50: 1.76 µM
  TGI: 3.24 µM
SK-OV-3 ovarian
  GI50: 3.06 µM
  TGI: 10.1 µM
SN12C renal
  GI50: 2.75 µM
  TGI: 10.1 µM
SNB-19 CNS
  GI50: 3.24 µM
  TGI: 16.8 µM
SNB-75 CNS
  GI50: 1.72 µM
  TGI: 11.1 µM
SR leukemia
  GI50: 2.91 µM
  TGI: 13.6 µM
SW-620 colon
  GI50: 3.22 µM
  TGI: 13.3 µM
T-47D breast
  GI50: 2.44 µM
  TGI: 13.7 µM
TK-10 renal
  GI50: 3.35 µM
  TGI: 26.7 µM
U251 CNS
  GI50: 3.33 µM
  TGI: 14 µM
UACC-257 melanoma
  GI50: 3.07 µM
  TGI: 12.4 µM
UACC-62 melanoma
  GI50: 2.43 µM
  TGI: 10.8 µM
UO-31 renal
  GI50: 2.4 µM
  TGI: 7.94 µM
